# Reference: patent US9434711B2 (Janssen Pharmaceutica, NV, priority 2007, dated 2016)
# Target: canine TRPM8 (Canis lupus familiaris, UniProt Q1A7N1)
# Test: In Vitro Canine TRPM8 Functional Assay (Ca2+ fluorescence, icilin activation)
# Type: cell-based
# Settings: for IC50: HEK293 cells stably expressing canine TRPM8, icilin activation, eight-point dose-response, read-out: IC50; for inhibition at 0.5 µM: compound at 0.5 μM, canine TRPM8, icilin activation, read-out: % Inh @ 0.5
# Procedure: The functional activity of compounds of the formula (I) was determined by measuring changes in intracellular calcium concentration using a Ca^2+-sensitive fluorescent dye. The changes in fluorescent signal were monitored by a fluorescence plate reader, either a FLIPR™ (Molecular Devices) or FDSS (Hamamatsu).
# At 24 hrs prior to assay, HEK293 cells stably expressing canine TRPM8 were seeded in culture medium in black wall, clear-base poly-D-lysine coated 384-well plates (BD Biosciences, NJ, USA) and grown overnight in 5% CO2 at 37° C. On assay day, growth media was removed and cells were loaded with Calcium 3 Dye (Molecular Devices) for 35 min at 37° C., under 5% CO2 and then for 25 min at room temperature and atmosphere. Subsequently, cells were tested for agonist-induced increases in intracellular Ca^2+ levels using FLIPR™ or FDSS. Cells were challenged with a compound of the Formula (I) (at varying concentrations) and intracellular Ca^2+ was measured for 5 min prior to the addition of icilin to all wells to achieve a final concentration that produces approximately an 80% maximal response. EC50 or IC50 values for compounds of the present invention were determined from eight-point dose-response studies. Curves were generated using the average of quadruplicate wells for each data point.
# Sequence of canine TRPM8 (Q1A7N1 1-1104): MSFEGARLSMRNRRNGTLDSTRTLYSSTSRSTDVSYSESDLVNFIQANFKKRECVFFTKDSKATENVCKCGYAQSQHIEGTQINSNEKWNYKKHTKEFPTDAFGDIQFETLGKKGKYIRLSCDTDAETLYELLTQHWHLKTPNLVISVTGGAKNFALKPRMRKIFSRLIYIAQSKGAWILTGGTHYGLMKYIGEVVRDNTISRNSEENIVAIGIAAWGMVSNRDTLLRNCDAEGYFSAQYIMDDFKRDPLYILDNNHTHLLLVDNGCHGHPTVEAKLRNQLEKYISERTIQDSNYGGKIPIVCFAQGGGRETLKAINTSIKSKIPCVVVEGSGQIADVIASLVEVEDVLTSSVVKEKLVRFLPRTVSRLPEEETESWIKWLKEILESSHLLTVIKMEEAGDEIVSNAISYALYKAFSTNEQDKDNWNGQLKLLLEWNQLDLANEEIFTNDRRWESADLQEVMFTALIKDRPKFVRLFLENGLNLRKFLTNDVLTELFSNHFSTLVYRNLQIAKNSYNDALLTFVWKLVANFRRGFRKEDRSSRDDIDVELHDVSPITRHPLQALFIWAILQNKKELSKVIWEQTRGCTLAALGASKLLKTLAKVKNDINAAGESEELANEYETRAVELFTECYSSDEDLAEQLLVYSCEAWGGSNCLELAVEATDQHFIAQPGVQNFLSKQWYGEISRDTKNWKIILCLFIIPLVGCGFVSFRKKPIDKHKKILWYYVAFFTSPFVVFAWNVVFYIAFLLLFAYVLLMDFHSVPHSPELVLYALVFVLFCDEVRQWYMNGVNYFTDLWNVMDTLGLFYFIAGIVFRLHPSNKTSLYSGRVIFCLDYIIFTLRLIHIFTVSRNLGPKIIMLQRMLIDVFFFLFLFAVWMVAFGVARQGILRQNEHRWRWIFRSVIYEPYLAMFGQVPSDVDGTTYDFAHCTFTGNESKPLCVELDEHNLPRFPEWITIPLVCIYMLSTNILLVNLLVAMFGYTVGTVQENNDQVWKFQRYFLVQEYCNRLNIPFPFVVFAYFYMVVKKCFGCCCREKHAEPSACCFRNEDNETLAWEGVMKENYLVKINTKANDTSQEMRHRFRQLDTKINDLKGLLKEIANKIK
IC50 [nM],inhibition at 0.5 µM [%],Structure (SMILES)
24,100,"O=S(=O)(c1ccccc1)N(Cc1ccc(F)c(F)c1)c1cc2ccccc2s1 [Compound 1, N-Benzo[b]thiophen-2-yl-N-(3,4-difluoro-benzyl)-benzenesulfonamide]"
35,98,"O=S(=O)(c1ccccc1)N(Cc1cccc(F)c1)c1cc2ccccc2s1 [Compound 3, N-Benzo[b]thiophen-2-yl-N-(3-fluoro-benzyl)-benzenesulfonamide]"
4,97,"O=S(=O)(c1ccccc1)N(Cc1ccc(F)cc1)c1sc2ccccc2c1Cl [Compound 4, N-(3-Chloro-benzo[b]thiophen-2-yl)-N-(4-fluoro-benzyl)-benzenesulfonamide]"
63,97,"O=S(=O)(c1ccccc1)N(Cc1cccc2cccnc12)c1sc2ccccc2c1Cl [Compound 5, N-(3-Chloro-benzo[b]thiophen-2-yl)-N-quinolin-8-ylmethyl-benzenesulfonamide]"
11.3,99,"O=S(=O)(c1ccccc1)N(Cc1ccc(OC(F)(F)F)cc1)c1sc2ccccc2c1Cl [Compound 6, N-(3-Chloro-benzo[b]thiophen-2-yl)-N-(4-trifluoromethoxy-benzyl)-benzenesulfonamide]"
10,99,"O=S(=O)(c1ccccc1)N(Cc1ccc(C(F)(F)F)cc1)c1sc2ccccc2c1Cl [Compound 8, N-(3-Chloro-benzo[b]thiophen-2-yl)-N-(4-trifluoromethyl-benzyl)-benzenesulfonamide]"
47,98,"O=S(=O)(c1ccccn1)N(Cc1ccc(F)c(F)c1)c1cc2ccccc2s1 [Compound 9, N-(Benzo[b]thiophen-2-yl)-N-(3,4-difluoro-benzyl)-pyridine-2-sulfonamide]"
229,89,"Cc1c(N(Cc2cccc3cccnc23)S(=O)(=O)c2cn(C)cn2)sc2ccccc12 [Compound 10, N-(3-Methyl-benzo[b]thiophen-2-yl)-N-(quinolin-8-ylmethyl)-1-methyl-1H-imidazole-4-sulfonamide]"
33,97,"Cc1c(N(Cc2ccc(OC(F)(F)F)cc2)S(=O)(=O)c2cn(C)cn2)sc2ccccc12 [Compound 11, N-(3-Methyl-benzo[b]thiophen-2-yl)-N-(4-trifluoromethoxy-benzyl)-1-methyl-1H-imidazole-4-sulfonamide]"
6,97,"Cc1c(N(Cc2ccc(F)c(F)c2)S(=O)(=O)c2cccnc2)sc2ccccc12 [Compound 12, N-(3,4-Difluoro-benzyl)-N-(3-methyl-benzo[b]thiophen-2-yl)-pyridine-3-sulfonamide]"
6,99,"Cc1c(N(Cc2ccc(OC(F)(F)F)cc2)S(=O)(=O)c2ccsc2)sc2ccccc12 [Compound 16, N-(3-Methyl-benzo[b]thiophen-2-yl)-N-(4-trifluoromethoxy-benzyl)-thiophene-3-sulfonamide]"
22,97,"Cc1c(N(Cc2cccc3cccnc23)S(=O)(=O)c2ccsc2)sc2ccccc12 [Compound 17, N-(3-Methyl-benzo[b]thiophen-2-yl)-N-(quinolin-8-ylmethyl)-thiophene-3-sulfonamide]"
81,94,"Cc1c(N(Cc2ccc(F)c(F)c2)S(=O)(=O)c2cc3ccccc3s2)sc2ccccc12 [Compound 18, N-(3,4-Difluoro-benzyl)-N-(3-methyl-benzo[b]thiophen-2-yl)-benzo[b]thiophene-2-sulfonamide]"
–,58,"Cc1c(N(Cc2cccc3cccnc23)S(=O)(=O)c2cc3ccccc3s2)sc2ccccc12 [Compound 19, N-(3-Methyl-benzo[b]thiophen-2-yl)-N-(quinolin-8-ylmethyl)-benzo[b]thiophene-2-sulfonamide]"
